In ChEMBL document CHEMBL1201862, “PubChem BioAssay data set” (2004):
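1) Cells in 96-well plates. 2) Compound, 48 h, 5 concentrations. 3) Linear interpolation between surrounding doses. 4) Unreached endpoint = highest concentration. GI50 is the concentration that inhibits growth by half.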 The source made the active and inactive calls. Cut-off read from the data, not from the text of the source: active = GI50 up to about 1.1 µM and inactive = higher.

Assays:
Test in all cases: NCI tumour cell line growth inhibition, 48 h
CAKI-1 = tested on: CAKI-1
HCC 2998 = tested on: HCC 2998
KM12 = tested on: KM12
LOX IMVI = tested on: LOX IMVI
MCF7 = tested on: MCF7
NCI-H23 = tested on: NCI-H23
NCI-H460 = tested on: NCI-H460
NCI-H522 = tested on: NCI-H522
OVCAR-4 = tested on: OVCAR-4
OVCAR-5 = tested on: OVCAR-5
PC-3 = tested on: PC-3
RXF 393 = tested on: RXF 393
SF-268 = tested on: SF-268
SK-MEL-28 = tested on: SK-MEL-28
SK-MEL-5 = tested on: SK-MEL-5
SN12C = tested on: SN12C
TK-10 = tested on: TK-10
UACC-257 = tested on: UACC-257
UO-31 = tested on: UO-31
DMS-273 = tested on: DMS-273

Measured: GI50

CC(C)(C)OC(=O)C(C1NC(C(=O)O)C(C)(C)S1)N1C(=O)c2ccccc2C1=O (centres undefined)
inactive: CAKI-1 > 100 µM | HCC 2998 > 100 µM | KM12 > 100 µM | LOX IMVI > 100 µM | MCF7 > 100 µM | NCI-H23 > 100 µM | NCI-H460 > 100 µM | NCI-H522 > 100 µM | OVCAR-4 > 100 µM | OVCAR-5 > 100 µM | PC-3 > 100 µM | RXF 393 > 100 µM | SF-268 > 100 µM | SK-MEL-28 > 100 µM | SK-MEL-5 > 100 µM | SN12C > 100 µM | TK-10 > 100 µM | UACC-257 > 100 µM | UO-31 > 100 µM

O=C1OCC=C1COC1OC(CO)C(O)C(O)C1O (centres undefined)
inactive: CAKI-1 > 100 µM | HCC 2998 > 100 µM | KM12 > 100 µM | LOX IMVI > 100 µM | MCF7 > 100 µM | NCI-H23 > 100 µM | NCI-H460 > 100 µM | NCI-H522 17.2 µM | OVCAR-4 > 100 µM | OVCAR-5 > 100 µM | PC-3 > 100 µM | RXF 393 > 100 µM | SF-268 > 100 µM | SK-MEL-28 > 100 µM | SK-MEL-5 > 100 µM | SN12C > 100 µM | TK-10 > 100 µM | UACC-257 > 100 µM | UO-31 > 100 µM

CCOC(=O)c1cc(C2CCN(c3ccccc3)C2=O)c(C(=O)/C=C(/C)N)[nH]1 (centres undefined)
inactive: CAKI-1 21.3 µM | HCC 2998 > 100 µM | KM12 > 100 µM | LOX IMVI 28 µM | MCF7 54.6 µM | NCI-H23 92.3 µM | NCI-H460 33.2 µM | NCI-H522 18.5 µM | OVCAR-4 42.5 µM | OVCAR-5 46.3 µM | PC-3 39.5 µM | RXF 393 37.9 µM | SF-268 30.2 µM | SK-MEL-28 29.1 µM | SK-MEL-5 40.8 µM | SN12C 21.8 µM | TK-10 28.2 µM | UACC-257 94.8 µM | UO-31 49.2 µM

COc1ccc(C(=O)C(C(=O)C(=O)Nc2ccc(Cl)c(Cl)c2)c2ccc(OC)cc2)cc1 (centres undefined)
inactive: CAKI-1 > 100 µM | DMS-273 > 100 µM | HCC 2998 > 100 µM | KM12 > 100 µM | LOX IMVI > 100 µM | NCI-H23 > 100 µM | NCI-H460 > 100 µM | OVCAR-4 > 100 µM | OVCAR-5 > 100 µM | RXF 393 > 100 µM | SF-268 > 100 µM | SK-MEL-28 > 100 µM | SK-MEL-5 > 100 µM | SN12C > 100 µM | TK-10 > 100 µM | UACC-257 > 100 µM | UO-31 > 100 µM

O=C1CCN2C(=Nc3cccc4cccc2c34)N1
inactive: DMS-273 > 100 µM | HCC 2998 > 100 µM | LOX IMVI > 100 µM | NCI-H23 > 100 µM | NCI-H460 > 100 µM | OVCAR-4 > 100 µM | OVCAR-5 > 100 µM | RXF 393 > 100 µM | SF-268 > 100 µM | SK-MEL-28 > 100 µM | SK-MEL-5 > 100 µM | SN12C > 100 µM | TK-10 > 100 µM | UACC-257 > 100 µM | UO-31 73.8 µM

CP(C)C.[Ag][I]
inactive: CAKI-1 > 100 µM | DMS-273 > 100 µM | HCC 2998 > 100 µM | KM12 > 100 µM | LOX IMVI 25.5 µM | NCI-H23 85.3 µM | NCI-H460 > 100 µM | OVCAR-4 18.2 µM | OVCAR-5 > 100 µM | RXF 393 > 100 µM | SF-268 > 100 µM | SK-MEL-28 61.9 µM | SK-MEL-5 15.4 µM | SN12C > 100 µM | TK-10 41.5 µM | UACC-257 > 100 µM | UO-31 > 100 µM

CCOC(=O)c1nc2cc(Cl)ccc2[nH]c1=O
inactive: CAKI-1 > 100 µM | HCC 2998 > 100 µM | KM12 > 100 µM | LOX IMVI > 100 µM | MCF7 > 100 µM | NCI-H23 > 100 µM | NCI-H460 53.7 µM | NCI-H522 > 100 µM | OVCAR-4 > 100 µM | OVCAR-5 > 100 µM | PC-3 > 100 µM | RXF 393 > 100 µM | SF-268 > 100 µM | SK-MEL-28 > 100 µM | SK-MEL-5 > 100 µM | SN12C > 100 µM | TK-10 > 100 µM | UACC-257 > 100 µM | UO-31 > 100 µM

COCCN(C(=O)c1ccccc1)C1CCC(=O)c2[nH]c3ccccc3c21 (centres undefined)
inactive: CAKI-1 4.58 µM | HCC 2998 17.1 µM | KM12 8.41 µM | LOX IMVI > 21.1 µM | MCF7 6.27 µM | NCI-H23 17.7 µM | NCI-H460 12.8 µM | NCI-H522 2.59 µM | OVCAR-4 6.81 µM | OVCAR-5 16.9 µM | PC-3 5.25 µM | RXF 393 5.83 µM | SF-268 9.12 µM | SK-MEL-28 6.07 µM | SK-MEL-5 7.14 µM | SN12C 7.85 µM | TK-10 20.3 µM | UACC-257 > 46.9 µM | UO-31 9.71 µM

Cc1[nH]c2ccccc2c1C1=NO/C(=N\O)C(c2c(C)[nH]c3ccccc23)C1 (centres undefined)
inactive: CAKI-1 36.1 µM | DMS-273 35.9 µM | HCC 2998 37.9 µM | KM12 38 µM | NCI-H23 62.1 µM | NCI-H460 23.9 µM | OVCAR-4 39.1 µM | OVCAR-5 50 µM | RXF 393 23.3 µM | SF-268 46 µM | SK-MEL-28 52.5 µM | SK-MEL-5 19.9 µM | SN12C 37 µM | TK-10 54 µM | UACC-257 71.3 µM | UO-31 26.9 µM

COc1ccccc1N1C(=O)/C(=C\c2cccc(Oc3ccccc3)c2)SC1c1ccccc1 (centres undefined)
inactive: CAKI-1 > 100 µM | HCC 2998 25.7 µM | KM12 42.6 µM | LOX IMVI 21.6 µM | MCF7 21.5 µM | NCI-H23 18.3 µM | NCI-H460 49 µM | NCI-H522 24.1 µM | OVCAR-4 30.6 µM | OVCAR-5 > 100 µM | PC-3 58.5 µM | RXF 393 56.9 µM | SF-268 38 µM | SK-MEL-28 46.9 µM | SK-MEL-5 14.4 µM | SN12C 30.2 µM | TK-10 > 100 µM | UACC-257 31.3 µM | UO-31 51.3 µM

CCOC(=O)CCC(NC(=O)c1ccc(OCc2nc3ccccc3n3cccc23)cc1)C(=O)OCC (centres undefined)
inactive: CAKI-1 > 100 µM | HCC 2998 > 100 µM | KM12 4.83 µM | LOX IMVI 42.8 µM | MCF7 39.2 µM | NCI-H23 29.9 µM | NCI-H460 > 100 µM | NCI-H522 6.59 µM | OVCAR-4 59.7 µM | OVCAR-5 > 100 µM | PC-3 26.6 µM | RXF 393 36.6 µM | SF-268 49.3 µM | SK-MEL-28 > 100 µM | SK-MEL-5 93.3 µM | SN12C > 100 µM | TK-10 > 100 µM | UACC-257 87.5 µM | UO-31 > 100 µM

O=C(Cc1nc2ccccc2s1)C(=O)Nc1ccc(Cl)cc1Cl
inactive: DMS-273 > 100 µM | HCC 2998 > 100 µM | KM12 > 100 µM | LOX IMVI > 100 µM | NCI-H23 54 µM | NCI-H460 > 100 µM | OVCAR-4 > 100 µM | OVCAR-5 > 100 µM | SF-268 > 100 µM | SK-MEL-28 > 100 µM | SN12C > 100 µM | TK-10 > 100 µM | UACC-257 > 100 µM | UO-31 > 100 µM

Cc1c(Cc2ccccc2)n(COCCCO)c(=O)[nH]c1=O
inactive: CAKI-1 > 100 µM | HCC 2998 > 100 µM | KM12 > 100 µM | LOX IMVI > 100 µM | MCF7 > 100 µM | NCI-H23 > 100 µM | NCI-H460 > 100 µM | NCI-H522 > 100 µM | OVCAR-4 > 100 µM | OVCAR-5 > 100 µM | PC-3 > 100 µM | RXF 393 > 100 µM | SF-268 > 100 µM | SK-MEL-28 > 100 µM | SK-MEL-5 > 100 µM | SN12C > 100 µM | TK-10 > 100 µM | UACC-257 > 100 µM | UO-31 > 100 µM

CC(NNC(=O)c1cc[n+]([BH2-]C#N)cc1)c1ccc(Cl)c(Cl)c1 (centres undefined)
inactive: CAKI-1 18.1 µM | HCC 2998 42.6 µM | KM12 40.5 µM | LOX IMVI 28.9 µM | MCF7 26.9 µM | NCI-H23 20.7 µM | NCI-H460 27.2 µM | NCI-H522 21.3 µM | OVCAR-4 30.9 µM | OVCAR-5 41.3 µM | PC-3 22.9 µM | RXF 393 38.5 µM | SF-268 39.6 µM | SK-MEL-28 40.8 µM | SK-MEL-5 19.7 µM | SN12C 34.5 µM | TK-10 28.6 µM | UACC-257 36.3 µM | UO-31 30 µM

CN1CCc2c([nH]c3ccccc23)C1
inactive: CAKI-1 > 100 µM | HCC 2998 > 100 µM | KM12 > 100 µM | LOX IMVI > 100 µM | MCF7 > 100 µM | NCI-H23 > 100 µM | NCI-H460 > 100 µM | NCI-H522 > 100 µM | OVCAR-4 > 100 µM | OVCAR-5 > 100 µM | PC-3 > 100 µM | RXF 393 > 100 µM | SF-268 > 100 µM | SK-MEL-28 > 100 µM | SK-MEL-5 > 100 µM | SN12C > 100 µM | TK-10 > 100 µM | UACC-257 > 100 µM | UO-31 > 100 µM
